Tests used:
[1] = target: T1, IDO1 enzyme in the Hela cell (Homo sapiens, UniProt P14902); experiment: Cell activity: interferon γ-stimulated Hela cells, absorbance of supernatant at 480 nm; assay type: cell-based; conditions: interferon γ 100 ng/ml, 72 hours
T1 construct: endogenous in cells; host or cells: HeLa cells stimulated with interferon γ (100 ng/ml)
How it was run: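 HeLa cells treated with compound plus interferon γ (100 ng/ml final) and cultured 72 h at 37 °C. Supernatant treated with trichloroacetic acid 30 min at 50 °C, centrifuged, then mixed with 2% dimethylaminobenzaldehyde in acetic acid; absorbance read at 480 nm.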

IDO1 enzyme = IDO1 enzyme (Homo sapiens, UniProt P14902); experiment: Determination of biochemical activity of IDO1 enzyme (absorbance at 320 nm); conditions: room temperature, 3 hours
IDO1 enzyme, sequence (P14902 whole entry): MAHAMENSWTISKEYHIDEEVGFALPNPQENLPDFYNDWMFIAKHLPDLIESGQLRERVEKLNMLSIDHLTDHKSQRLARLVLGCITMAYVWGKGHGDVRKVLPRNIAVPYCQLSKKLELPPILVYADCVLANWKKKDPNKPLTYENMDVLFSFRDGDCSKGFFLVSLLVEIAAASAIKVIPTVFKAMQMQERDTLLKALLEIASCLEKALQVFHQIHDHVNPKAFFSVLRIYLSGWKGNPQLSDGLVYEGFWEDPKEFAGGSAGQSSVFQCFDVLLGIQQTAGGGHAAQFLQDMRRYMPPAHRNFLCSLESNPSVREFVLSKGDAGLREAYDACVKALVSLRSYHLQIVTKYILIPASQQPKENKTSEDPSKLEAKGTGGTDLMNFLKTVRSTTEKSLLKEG
How it was run: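 Enzyme and compound were reacted in sodium hydrogen phosphate buffer (pH 7-8) for 3 hours at room temperature. Absorbance at 320 nm gave inhibition rate, and IC50 was calculated from it.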

T1 sequence (P14902 whole entry): as above

Row | IC50 [1] [µM] | IC50 (IDO1 enzyme) [µM] | Compound
1 | 0.1 to 1 | 0.1 to 1 | O/N=C(\Nc1ccc(F)c(Br)c1)c1cocc1NC(=S)Nc1ccccc1 [Embodiment 137, (Z)-1-(4-(N-(3-bromo-4-fluorophenyl)-N′-hydroxyaminoiminomethyl)-furan-3-substituted)-3-phenylthiourea]
2 | 0.1 to 1 | 0.1 to 1 | O/N=C(\Nc1ccc(F)c(Br)c1)c1cocc1NC(=S)NC1CCCCC1 [Embodiment 138, (Z)-1-(4-(N-(3-bromo-4-fluorophenyl)-N′-hydroxyaminoiminomethyl)-furan-3-substituted)-3-cyclohexylthiourea]
3 | < 0.001 | < 0.001 | COc1ccc(NC(=N)Nc2nonc2/C(=N/O)Nc2ccc(F)c(Br)c2)cc1 [Embodiment 139, (Z)-1-(4-(N-(3-bromo-4-fluorophenyl)-N′-hydroxyaminoiminomethyl)-1,2,5-oxadiazole-3-substituted)-3-(4-methoxyphenyl)guanidine]
4 | 0.1 to 1 | 0.1 to 1 | N=C(Nc1ccccc1)Nc1nonc1/C(=N/O)Nc1ccc(F)c(Br)c1 [Embodiment 140, (Z)-1-(4-(N-(3-bromo-4-fluorophenyl)-N′-hydroxyaminoiminomethyl)-1,2,5-oxadiazole-3-substituted)-3-phenylguanidine]
5 | < 0.001 | < 0.001 | N=C(Nc1ccc(O)cc1)Nc1nonc1/C(=N/O)Nc1ccc(F)c(Br)c1 [Embodiment 141, (Z)-1-(4-(N-(3-bromo-4-fluorophenyl)-N′-hydroxyaminoiminomethyl)-1,2,5-oxadiazole-3-substituted)-3-(4-hydroxyphenyl)guanidine]
6 | < 0.001 | < 0.001 | N=C(Nc1ccc(N)cc1)Nc1nonc1/C(=N/O)Nc1ccc(F)c(Br)c1 [Embodiment 142, (Z)-1-(4-(N-(3-bromo-4-fluorophenyl)-N′-hydroxyaminoiminomethyl)-1,2,5-oxadiazole-3-substituted)-3-(4-aminophenyl)guanidine]
7 | > 1 | > 1 | N=C(Nc1ccc(C(F)(F)F)cc1)Nc1nonc1/C(=N/O)Nc1ccc(F)c(Br)c1 [Embodiment 143, (Z)-1-(4-(N-(3-bromo-4-fluorophenyl)-N′-hydroxyaminoiminomethyl)-1,2,5-oxadiazole-3-substituted)-3-(4-trifluorophenyl)guanidine]
8 | 0.1 to 1 | 0.1 to 1 | COc1ccc(NC(=N)Nc2nonc2/C(=N/O)Nc2ccc(F)c(Br)c2)c(F)c1 [Embodiment 144]
9 | < 0.001 | < 0.001 | N=C(Nc1nonc1/C(=N/O)Nc1ccc(F)c(Br)c1)NC1CCCCC1 [Embodiment 145, (Z)-1-(4-(N-(3-bromo-4-fluorophenyl)-N′-hydroxyaminoiminomethyl)-1,2,5-oxadiazole-3-substituted)-3-cyclohexylguanidine]
10 | > 1 | > 1 | N=C(Nc1nonc1/C(=N/O)Nc1ccc(F)c(Br)c1)NC1CCCC1 [Embodiment 146, (Z)-1-(4-(N-(3-bromo-4-fluorophenyl)-N′-hydroxyaminoiminomethyl)-1,2,5-oxadiazole-3-substituted)-3-cyclopentylguanidine]
11 | < 0.001 | < 0.001 | N=C(Nc1nonc1/C(=N/O)Nc1ccc(F)c(Br)c1)NC1CCC(O)CC1 (stereo not drawn) [Embodiment 147, (Z)-1-(4-(N-(3-bromo-4-fluorophenyl)-N′-hydroxyaminoiminomethyl)-1,2,5-oxadiazole-3-substituted)-3-(4-hydroxycyclohexyl)guanidine]
12 | < 0.001 | < 0.001 | N=C(Nc1nonc1/C(=N/O)Nc1ccc(F)c(Br)c1)NC1CCNCC1 [Embodiment 148, (Z)-1-(4-(N-(3-bromo-4-fluorophenyl)-N′-hydroxyaminoiminomethyl)-1,2,5-oxadiazole-3-substituted)-3-(piperidine-4-substituted)guanidine]
13 | > 1 | > 1 | N=C(Nc1nonc1/C(=N/O)Nc1ccc(F)c(Br)c1)NC1CC1 [Embodiment 149, (Z)-1-(4-(N-(3-bromo-4-fluorophenyl)-N′-hydroxyaminoiminomethyl)-1,2,5-oxadiazole-3-substituted)-3-(cyclopropyl)guanidine]
14 | 0.1 to 1 | 0.1 to 1 | N=C(Nc1nonc1/C(=N/O)Nc1ccc(F)c(Br)c1)NC1CCC(N)CC1 (stereo not drawn) [Embodiment 150, (Z)-1-(4-(N-(3-bromo-4-fluorophenyl)-N′-hydroxyaminoiminomethyl)-1,2,5-oxadiazole-3-substituted)-3-(4-aminocyclohexyl)guanidine]
15 | < 0.001 | < 0.001 | N=C(NCCCO)Nc1nonc1/C(=N/O)Nc1ccc(F)c(Br)c1 [Embodiment 151, (Z)-1-(4-(N-(3-bromo-4-fluorophenyl)-N′-hydroxyaminoiminomethyl)-1,2,5-oxadiazole-3-substituted)-3-(3-hydroxypropyl)guanidine]
16 | < 0.001 | < 0.001 | N=C(NCCO)Nc1nonc1/C(=N/O)Nc1ccc(F)c(Br)c1 [Embodiment 152, (Z)-1-(4-(N-(3-bromo-4-fluorophenyl)-N′-hydroxyaminoiminomethyl)-1,2,5-oxadiazole-3-substituted)-3-(2-hydroxyethyl)guanidine]
17 | < 0.001 | < 0.001 | N=C(NCCN)Nc1nonc1/C(=N/O)Nc1ccc(F)c(Br)c1 [Embodiment 153]
18 | 0.1 to 1 | 0.1 to 1 | COc1ccc(NC(=N)Nc2conc2/C(=N/O)Nc2ccc(F)c(Cl)c2)cc1 [Embodiment 154, (Z)-1-(4-(N-(3-chloro-4-fluorophenyl)-N′-hydroxyaminoiminomethyl)-isoxazole-3-substituted)-4-(4-methoxyphenyl)guanidine]
19 | 0.1 to 1 | 0.1 to 1 | N=C(Nc1ccccc1)Nc1conc1/C(=N/O)Nc1ccc(F)c(Cl)c1 [Embodiment 155, (Z)-1-(4-(N-(3-chloro-4-fluorophenyl)-N′-hydroxyaminoiminomethyl)-isoxazole-3-substituted)-4-phenylguanidine]
20 | 0.1 to 1 | 0.1 to 1 | N=C(Nc1conc1/C(=N/O)Nc1ccc(F)c(Cl)c1)NC1CCCCC1 [Embodiment 156, (Z)-1-(4-(N-(3-chloro-4-fluorophenyl)-N′-hydroxyaminoiminomethyl)-isoxazole-3-substituted)-4-cyclohexylguanidine]
21 | 0.1 to 1 | 0.1 to 1 | COc1ccc(NC(=N)Nc2nocc2/C(=N/O)Nc2ccc(F)c(Br)c2)cc1 [Embodiment 157, (Z)-1-(4-(N-(3-bromo-4-fluorophenyl)-N′-hydroxyaminoiminomethyl)-isoxazole-3-substituted)-3-(4-methoxyphenyl)guanidine]
22 | 0.1 to 1 | 0.1 to 1 | N=C(Nc1ccccc1)Nc1nocc1/C(=N/O)Nc1ccc(F)c(Br)c1 [Embodiment 158, (Z)-1-(4-(N-(3-bromo-4-fluorophenyl)-N′-hydroxyaminoiminomethyl)-isoxazole-3-substituted)-3-phenylguanidine]
23 | 0.1 to 1 | 0.1 to 1 | N=C(Nc1nocc1/C(=N/O)Nc1ccc(F)c(Br)c1)NC1CCCCC1 [Embodiment 159, (Z)-1-(4-(N-(3-bromo-4-fluorophenyl)-N′-hydroxyaminoiminomethyl)-isoxazole-3-substituted)-3-cyclohexylguanidine]
24 | 0.1 to 1 | 0.1 to 1 | COc1ccc(NC(=N)Nc2cocc2/C(=N/O)Nc2ccc(F)c(Br)c2)cc1 [Embodiment 160, (Z)-1-(4-(N-(3-bromo-4-fluorophenyl)-N′-hydroxyaminoiminomethyl)-furan-3-substituted)-3-(4-methoxyphenyl)guanidine]
25 | 0.1 to 1 | 0.1 to 1 | N=C(Nc1ccccc1)Nc1cocc1/C(=N/O)Nc1ccc(F)c(Br)c1 [Embodiment 161, (Z)-1-(4-(N-(3-bromo-4-fluorophenyl)-N′-hydroxyaminoiminomethyl)-furan-3-substituted)-3-phenylguanidine]
26 | 0.1 to 1 | 0.1 to 1 | N=C(Nc1cocc1/C(=N/O)Nc1ccc(F)c(Br)c1)NC1CCCCC1 [Embodiment 162, (Z)-1-(4-(N-(3-bromo-4-fluorophenyl)-N′-hydroxyaminoiminomethyl)-furan-3-substituted)-3-cyclohexylguanidine]
27 | 0.1 to 1 | 0.1 to 1 | (Z)-1-(4-(N-(3-bromo-4-fluorophenyl)-N′-hydroxyaminoiminomethyl)-isoxazole-3-substituted)-3-phenylurea [Embodiment 81]

From patent publication US11014895B2, “Heterocyclic urea compound, and drug composition and application thereof” (CHINA PHARMACEUTICAL UNIVERSITY, priority 2017, dated 2021)
